How the values were obtained:
[1] = molecular target: T1, MCT1 (Homo sapiens, UniProt P53985); test: Assay (c): FLIPR BCECF lactate influx in K562 cells; assay type: cell-based; settings: mean of at least three repeats, read-out: MCT1 FLIPR pIC50 (K562) (converted)
T1 construct: a human erythroleukemia line predominantly expressing MCT1, a small amount of MCT2 and no MCT4; host or cells: K562
T1 sequence (P53985 1-500): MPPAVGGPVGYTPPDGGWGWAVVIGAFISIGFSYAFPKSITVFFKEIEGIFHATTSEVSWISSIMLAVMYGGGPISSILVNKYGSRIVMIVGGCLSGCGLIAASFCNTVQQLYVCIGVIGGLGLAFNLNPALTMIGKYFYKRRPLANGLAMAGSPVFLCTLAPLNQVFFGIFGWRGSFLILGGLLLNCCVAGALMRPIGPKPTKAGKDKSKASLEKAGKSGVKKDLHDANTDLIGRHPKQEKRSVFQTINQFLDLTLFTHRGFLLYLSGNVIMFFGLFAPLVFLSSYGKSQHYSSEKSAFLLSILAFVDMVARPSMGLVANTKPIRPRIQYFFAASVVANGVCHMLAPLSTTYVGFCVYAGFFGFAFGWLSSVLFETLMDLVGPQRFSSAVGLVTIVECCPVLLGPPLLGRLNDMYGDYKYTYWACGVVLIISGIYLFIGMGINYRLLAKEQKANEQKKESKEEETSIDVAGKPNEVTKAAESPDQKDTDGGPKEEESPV
Protocol: Cells were loaded with the pH sensitive dye BCECFAM(Invitrogen #B11150) before being washed to remove excess dye and seeded into the assay plates—directly onto the test compound—at a density of 15,000 cells/well (NCI—H358) or 30,000 cells/well (K562), in 30 μl HBSS with 1 mM [final] […] Assay plates were lidded and spun in a plate centrifuge at 170 g for 1 minute. Plates were then wrapped in foil and incubated in the dark for 1 hour at room temperature.
Following incubation with test compound, 10 μl of 25 mM Sodium-L-Lactate (Sigma #L7022) made up in HBSS with 1 mM [final] […] This addition was performed directly on the FLIPR Tetra platform (Molecular Devices) as part of a real-time kinetic read protocol. […] A percentage change from base-line was calculated for each test well and values normalised to control wells—treated with either DMSO (maximum assay signal) or chemistry related to that described in this patent (minimum assay signal)—before fitting concentration response curves to determine an IC50 value.

[2] = tested on: NCI H358 subcutaneous xenograft; test: Human lung cancer xenograft model, VEGFR TKI combination; assay type: in vivo, female nude mice; settings: combination of AZD2171 (3 mg/kg QD) with Example 62 (100 mg/kg BID), oral, 17 days; p<0.001 vs control, p=0.013 vs AZD2171 alone
Protocol: The in vivo efficacy of MCT4 inhibitors has been tested in human xenograft models. The NSCLC cell line NCI H358 can be grown as a subcutaneous xenograft in female nude mice and tumour volume calculated from bilateral caliper measurements. For efficacy studies three million NCI H358 cells were inoculated sub-cutaneously onto the left flank of the animal in a volume of 0.1 ml serum free media (RPMI) and matrigel. Animals were assigned into treatment groups 14 days after cell implantation and received either AZD2171 (3 mg/kg QD) (Wedge et al., (2005) Cancer Res. 65:4389-4400), a compound of Formula (I) (100 mg/kg BID) or the combination of both by oral gavage. A vehicle control of 0.5% hydroxy propyl methyl cellulose/0.1% Tween 80 was dosed twice daily given orally. Dosing was continued for 17 days and tumour volume, body weight and tumour condition were recorded twice weekly for the duration of the study.

[3] = tested on: MC38 MCT1 KO murine colorectal cell line; test: Mouse syngeneic model, αCTLA4 antibody combination (first study, FIG. 4); assay type: in vivo, female C57·B16 mice; settings: Day 15
Source text: The in vivo efficacy of MCT4 inhibitors has been tested in murine syngeneic models. To test the selective impact of MCT4 inhibitors of Formula (I), MCT1 was knocked-out (KO) of the MC38 syngeneic cell line model using CRISPR precise genome editing. The MC38 MCT1 KO murine colorectal cell line can be grown sub-cutaneously in female C57·B16 mice and tumour volume calculated from bilateral caliper measurements. For efficacy studies, ten million cells were inoculated subcutaneously onto the left flank of the animal in a volume of 0.1 ml serum free DMEM media. Animals were randomised by bodyweight at the time of cell implantation and treatment started the following day. In the first of these studies shown in FIG. 4, monotherapy treatment arms received either a compound of Formula (I) (100 mg/kg BID) by oral gavage or αCTLA4 antibody (anti-CTLA-4 9D9 mlgG1 antibody, described in WO200712373) (10 mg/kg twice weekly) intraperitoneally. Combination groups consisted of a compound of Formula (I) (100 or 10 mg/kg PO BID) with αCTLA4 antibody (10 mg/kg IP twice weekly). In the second of these studies shown in FIG. 5, monotherapy treatment arms received either a compound of Formula (I) (30 mg/kg PO BID) with αPD-1 antibody (from Bio X Cell, Catalogue #BE0146, Lot 665417s1, 6.78 mg/mL) (10 mg/kg IP twice weekly). In both studies dosing was continued for up to 6 weeks and tumour volume, body weight and tumour condition were recorded three times weekly. Vehicle was 0.5% hydroxy propyl methyl cellulose/0.1% Tween 80 given twice daily by oral gavage with PBS/a given twice weekly intraperitoneally in both studies.
Individual tumour growth profiles are shown with animals taken off study using time to event criteria based on a maximum tumour volume of 1.5 cm^3, tumour condition or animal welfare limits. Due to animals coming off study during the later stages of the experiment, GeoMean percentage inhibition values were calculated on Day 15. […] Monotherapy αCTLA4 (10 mg/kg) was ineffective with 6.1%^NS.

[4] = tested on: MC38 MCT1 KO murine colorectal cell line; test: Mouse syngeneic model, αPD-1 antibody combination (second study, FIG. 5); assay type: in vivo, female C57·B16 mice; settings: Day 13
Source text: The in vivo efficacy of MCT4 inhibitors has been tested in murine syngeneic models. To test the selective impact of MCT4 inhibitors of Formula (I), MCT1 was knocked-out (KO) of the MC38 syngeneic cell line model using CRISPR precise genome editing. The MC38 MCT1 KO murine colorectal cell line can be grown sub-cutaneously in female C57·B16 mice and tumour volume calculated from bilateral caliper measurements. For efficacy studies, ten million cells were inoculated subcutaneously onto the left flank of the animal in a volume of 0.1 ml serum free DMEM media. Animals were randomised by bodyweight at the time of cell implantation and treatment started the following day. […] In both studies dosing was continued for up to 6 weeks and tumour volume, body weight and tumour condition were recorded three times weekly. […]
Again, individual tumour growth profiles are shown with animals taken off study using time to event criteria based on a maximum tumour volume of 1.5 cm^3, tumour condition or animal welfare limits. Due to animals reaching the time to event endpoint at different times during the later stages of the experiment GeoMean percentage inhibition values were calculated on Day 13.

IC50 [1]: > 25.1 µM
Structure (SMILES): Cc1nc2nc(C)c(O[C@@H]3CCN(c4ccc(-c5ccc(CN6CCOCC6)nn5)cc4)C3)c(C)n2n1 [Example 62, (R)-4-((6-(4-(3-((2,5,7-trimethyl-[1,2,4]triazolo[1,5-a]pyrimidin-6-yl)oxy)pyrrolidin-1-yl)phenyl)pyridazin-3-yl)methyl)morpholine]
tumour regression [2]: 72%
GeoMean percentage growth inhibition vs vehicle control ([3]; Example 62 10 mg/kg PO BID with αCTLA4 antibody 10 mg/kg IP twice weekly, p≤0.01): 67.4%
GeoMean percentage growth inhibition vs vehicle control ([3]; Example 62 100 mg/kg PO BID with αCTLA4 antibody 10 mg/kg IP twice weekly, p≤0.001, p=0.0311 vs Example 62 alone): 82.2%
GeoMean percentage growth inhibition vs vehicle control ([3]; Example 62 monotherapy 100 mg/kg BID PO, p≤0.05): 60.0%
GeoMean percentage growth inhibition vs vehicle control ([4]; Example 62 30 mg/kg PO BID with αPD-1 antibody 10 mg/kg IP twice weekly, p≤0.001): 82.3%
GeoMean percentage growth inhibition vs vehicle control ([4]; Example 62 monotherapy 30 mg/kg PO BID, NS): 30.1%
